Publication PMC11481179, “Development and Application of Reversible and Irreversible Covalent Probes for Human and Mouse Cathepsin‐K Activity Detection, Revealing Nuclear Activity” (Advanced Science, 2024)

Assays:
CTSK in U2-OS cells = target: T1, CTSK in U2-OS cells (Homo sapiens, UniProt P43235); experiment: Colocalization of ABP with anti-CTSK antibody, confocal microscopy; assay type: cell-based; settings: fixed U2-OS cells
T1 construct: ability to label endogenous CTSK activity in intact cells; endogenous in cells; host or cells: U-2 OS
T1 sequence (P43235 115-329): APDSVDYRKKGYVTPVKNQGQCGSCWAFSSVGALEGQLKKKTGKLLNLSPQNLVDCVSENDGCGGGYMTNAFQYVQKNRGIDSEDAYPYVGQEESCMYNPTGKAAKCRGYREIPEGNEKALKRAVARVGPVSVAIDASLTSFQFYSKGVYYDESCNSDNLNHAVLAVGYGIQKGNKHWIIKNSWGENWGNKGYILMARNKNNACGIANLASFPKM
Method: The probes were then evaluated for their ability to detect active CTSK by fluorescent microscopy. ABPs were incubated with intact U‐2 OS cells, after preincubation with vehicle, a pan cathepsin inhibitor (GB111‐NH2 ),^[ [47] ^] or our selective CTSK inhibitor GD30. Cells were then fixed and imaged by confocal fluorescent microscopy, (Figure 3a). The irreversible GD32 detected active CTSK and was inhibited by both inhibitors, indicating probe specificity. […] However, when live cell imaging was performed without fixation, active CTSK was detected by GD42 although barely, reflecting the probe affinity together with the low level of active CTSK in this cell line (Figure 3b). In order to determine the specificity of GD32’s fluorescence signaling, U2‐OS cells were treated with the probe. […] Additionally, the increased extent of the antibody signal may be attributed to its interaction with the pro‐CTSK, or CTSK that is bound to an endogenous inhibitor, which should not be detected by GD32 since they are not active. Figure 3 CTSK activity detected in intact cells. a) Cultures of U2‐OS cells were grown in 8‐well chambers. […] Red, probe fluorescence, blue, DAPI. page 14: Evaluation of the permeability of GD30, and ODN to intact cells, competition assay: MG63, U87-MG, A549, and U-2 OS cells (5x10^5 cells/well) were seeded in a six-well plate one day before treatment. […]

Jurkat cells = experiment: Cathepsin labeling in intact Jurkat cells that lack mature CTSK, fluorescent SDS-PAGE; assay type: cell-based, human; settings: probe 5 µM, up to 24 h
Method: To further corroborate the selectivity of GD32, we tested the labeling of Jurkat cells, which lack mature CTSK. Intact cells were incubated with the probe for different durations up to 24 h before they were lysed and analyzed by fluorescent SDS‐PAGE. […] These findings led us to select GD32 as a lead compound for further investigation of CTSK's activity and location in different biological and medical samples. page 8: Figure S7. Cathepsin labeling in intact Jurkat cells that lack mature CTSK. Jurkat cells were treated with GD32 or GB123 (5 µM) in a culture medium for different durations up to 24 h, followed by cell lysis, and fluorescent SDS-PAGE analysis. […] The gel was analyzed by western blot with anti CTSK antibody. While pro-CTSK is detected, indicated by the black arrow, the mature CTSK is not detected. (1 picture or pasted object on this page, not shown here)

overlap coefficiency of probe signal (Cy5) with CTSK antibody (Cy3) (CTSK in U2-OS cells): 0.892
Compound: C#CCNC(=O)[C@H](CC(C)C)N[C@@H](c1ccc(-c2ccc(S(=O)(=O)CCNC(=O)CCCCC[N+]3=C(/C=C/C=C/C=C4/N(C)c5ccc(S(=O)(=O)O)cc5C4(C)C)C(C)(C)c4cc(S(=O)(=O)O)ccc43)cc2)cc1)C(F)(F)F [GD32]
fluorescent bands after labeling (Jurkat cells): no fluorescent bands were detected
